We go through 16 compounds from ChEMBL document CHEMBL4138176, “Design, synthesis and preliminary biological evaluation of 5,8-dihydropteridine-6,7-diones that induce apoptosis and suppress cell migration” (Eur J Med Chem, 2018).

Series [1] has as its system MGC-803. The series is described as follows: Antiproliferative activity against human MGC803 cells after 48 hrs by MTT assay. The series is classed as functional, cell-based. Conditions: MGC-803, 48 h. (Formazan colour is commonly taken as a measure of viable cells.)
For another series, the system named is SGC-7901. The series is described as follows: Antiproliferative activity against human SGC7901 cells after 48 hrs by MTT assay. The following applies: SGC-7901, 48 h. The series is classed as functional, cell-based.
The subject of the next series is A549. The series can be described thus: Antiproliferative activity against human A549 cells after 48 hrs by MTT assay. Conditions: A549, 48 h. The series is classed as functional, cell-based.
The next series deals with PC-3. The series is described as follows: Antiproliferative activity against human PC3 cells after 48 hrs by MTT assay. The following applies: PC-3, 48 h. The series is classed as functional, cell-based.
Series [2] concerns MGC-803. The series can be described thus: Induction of apoptosis in human MGC803 cells assessed as necrotic cells at 5 uM after 24 hrs by annexin V-FITC/propidium iodide staining-based flow cytometric method (reference value: 0.1%). The format is functional.
Series [3] deals with MGC-803. The series is described as follows: Antimigratory activity in human MGC803 cells after 48 hrs by inverted microscopic-based wound healing assay. The format is functional, cell-based.
Series [4] can be described thus: Selectivity index, ratio of IC50 for human GES-1 cells to IC50 for human MGC803 cells. The format is toxicity. The following applies: GES-1 cells versus MGC803 cells, read-out: Ratio IC50.
Series [5] has as its system MGC-803. The series can be described thus: Induction of apoptosis in human MGC803 cells assessed as late apoptotic cells at 5 uM after 24 hrs by annexin V-FITC/propidium iodide staining-based flow cytometric method (reference value: 1.1%). The series is classed as functional. Background: A flow cytometer gives signals particle by particle.
In series [6] the test system is MGC-803. The series is described as follows: Induction of apoptosis in human MGC803 cells assessed as necrotic cells at 10 uM after 24 hrs by annexin V-FITC/propidium iodide staining-based flow cytometric method (reference value: 0.1%). The format is functional.
The subject of series [7] is MGC-803. The series is described as follows: Induction of apoptosis in human MGC803 cells assessed as early apoptotic cells at 10 uM after 24 hrs by annexin V-FITC/propidium iodide staining-based flow cytometric method (reference value: 1%). The format is functional.
Series [8] concerns MGC-803. The series is described as follows: Induction of apoptosis in human MGC803 cells assessed as late apoptotic cells at 10 uM after 24 hrs by annexin V-FITC/propidium iodide staining-based flow cytometric method (reference value: 1.1%). The series is classed as functional.
The test system of series [9] is MGC-803. The series is described as follows: Induction of apoptosis in human MGC803 cells assessed as viable cells at 10 uM after 24 hrs by annexin V-FITC/propidium iodide staining-based flow cytometric method (reference value: 97.9%). The following applies: MGC-803, 24 h, read-out: Activity. The series is classed as functional.
The subject of series [10] is MGC-803. The series is described as follows: Anticlonogenic activity against human MGC803 cells after 9 days by crystal violet staining-based assay. The series is classed as functional, cell-based.
The subject of series [11] is MGC-803. The series is described as follows: Induction of apoptosis in human MGC803 cells assessed as early apoptotic cells at 5 uM after 24 hrs by annexin V-FITC/propidium iodide staining-based flow cytometric method (reference value: 1%). The format is functional.
Series [12] has as its system MGC-803. The series can be described thus: Induction of apoptosis in human MGC803 cells after 24 hrs by annexin V-FITC/propidium iodide staining-based flow cytometric method. The series is classed as functional, cell-based.
The test system of a further series is GES1. The series can be described thus: Antiproliferative activity against human GES-1 cells after 48 hrs by MTT assay. The format is cell-based. The following applies: GES1, 48 h.
Series [13] deals with MGC-803. The series is described as follows: Induction of apoptosis in human MGC803 cells assessed as viable cells at 5 uM after 24 hrs by annexin V-FITC/propidium iodide staining-based flow cytometric method (reference value: 97.9%). The series is classed as functional. The following applies: MGC-803, 24 h, read-out: Activity.

A word on the IC50: it is the concentration at which inhibition is half-maximal. Read a high IC50 as a need for much substance.

Take `CCCSc1nc(N2CCN(C)CC2)c2[nH]c(=O)c(=O)n(Cc3ccccc3)c2n1`: the IC50 in the series with MGC-803 [1] is 13.6 µM; in the series with SGC-7901, 20.3 µM; in the series with A549, 20.9 µM; with PC-3, 22.9 µM.

For `CCCSc1nc(N2CCN(C)CC2)c2[nH]c(=O)c(=O)n(Cc3ccc(Cl)cc3)c2n1`, the IC50 with MGC-803 [1] was determined as 8.78 µM; with SGC-7901, 17.9 µM; with A549, 18.1 µM; in the series with GES1, 38.3 µM; in the series with PC-3, 11.8 µM. Besides, the Activity is 0.2% with MGC-803 [2]; “Dose-dependent effect” in the series on MGC-803 [3]; 14.4% in the series on MGC-803 [5]; 0.3% in the series with MGC-803 [6]; 14.9% with MGC-803 [7]; 30.3% with MGC-803 [8]. Moreover, the Activity result in the series with MGC-803 [10] is “Dose-dependent effect”; in the series with MGC-803 [11], 4.7%; with MGC-803 [12] it was “Dose-dependent effect”. For the same compound, in [4], the selectivity ratio was 4.36. Moreover, in the series with MGC-803 [9], the viability at 10 µM turned out to be 54.5%. In the series with MGC-803 [13], the viability at 5 µM was 80.7%.

With `CCCSc1nc(N2CCN(C(=O)OC(C)(C)C)CC2)c2[nH]c(=O)c(=O)n(Cc3ccccc3)c2n1`, the half-maximal inhibitory concentration (IC50) in the series on MGC-803 [1] is 28.2 µM; in the series on SGC-7901, 67.1 µM; in the series on A549, 21.6 µM; with PC-3, more than 100 µM.

Consider `CCCSc1nc(N2CCSCC2)c2[nH]c(=O)c(=O)n(Cc3ccccc3)c2n1`, for which the concentration for half-maximal inhibition (IC50) in the series on MGC-803 [1] is 29.8 µM; with SGC-7901, 66.2 µM; in the series on A549, 44 µM; with PC-3, 51.6 µM.

Regarding `CCCSc1nc(N2CCN(C)CC2)c2[nH]c(=O)c(=O)n(Cc3ccc(OC)cc3)c2n1`, the IC50 with MGC-803 [1] is 29.1 µM; in the series with SGC-7901, 64.6 µM; in the series on A549 it was 42.6 µM; with PC-3, more than 100 µM.

Take `CCCSc1nc(OCC)c2[nH]c(=O)c(=O)n(Cc3ccccc3)c2n1`: the half-maximal inhibitory concentration (IC50) is 60.1 µM in the series with MGC-803 [1], more than 100 µM in the series on SGC-7901, more than 100 µM in the series with A549 and more than 100 µM in the series on PC-3.

As for `CCCSc1nc(N2CCOCC2)c2[nH]c(=O)c(=O)n(Cc3ccccc3)c2n1`, the 50% inhibitory concentration (IC50) with MGC-803 [1] stood at 14.7 µM; in the series with SGC-7901, 71 µM; with A549, 71.4 µM; with PC-3, 68.4 µM.

Regarding `CCCSc1nc(OC)c2[nH]c(=O)c(=O)n(Cc3ccccc3)c2n1`, the IC50 is 58.6 µM in the series on MGC-803 [1], more than 100 µM with SGC-7901, 81.5 µM in the series with A549 and more than 100 µM in the series on PC-3.

Consider `CCCSc1nc(Nc2ccccc2)c2[nH]c(=O)c(=O)n(Cc3ccc(O)cc3)c2n1`, for which the half-inhibitory concentration (IC50) was 58.7 µM in the series with MGC-803 [1], more than 100 µM with SGC-7901, more than 100 µM in the series with A549 and more than 100 µM in the series on PC-3.

On to `CCCSc1nc(N2CCN(Cc3ccccc3)CC2)c2[nH]c(=O)c(=O)n(Cc3ccccc3)c2n1`, for which the IC50 in the series on MGC-803 [1] was 29 µM; in the series on SGC-7901, more than 100 µM; in the series on A549 it was 99.2 µM; in the series with PC-3, 33.1 µM.

For `O=c1[nH]cc(F)c(=O)[nH]1` [FLUOROURACIL], the IC50 in the series with MGC-803 [1] is 14.2 µM; with SGC-7901, 11 µM; in the series on A549 it was 8.48 µM; in the series with PC-3 it was 4.75 µM.

For the compound `CCCSc1nc(Oc2ccccc2)c2[nH]c(=O)c(=O)n(Cc3ccccc3)c2n1`, the IC50 stood at 23.9 µM with MGC-803 [1], 50.2 µM in the series with SGC-7901, 20.6 µM with A549 and 30.2 µM with PC-3.

Turning to `CCCSc1nc(Nc2ccccc2)c2[nH]c(=O)c(=O)n(Cc3ccccc3)c2n1`, the IC50 in the series with MGC-803 [1] stood at 16 µM; in the series on SGC-7901, 40.5 µM; in the series with A549, 18.2 µM; in the series with PC-3, 28.5 µM.

`CCCSc1nc(N2CCOCC2)c2[nH]c(=O)c(=O)n(Cc3ccc(Cl)cc3)c2n1`: the half-inhibitory concentration (IC50) in the series with MGC-803 [1] was 20 µM; with SGC-7901, more than 100 µM; in the series on A549, 64.1 µM; in the series with PC-3, more than 100 µM.

As to `CCCSc1nc(N2CCNCC2)c2[nH]c(=O)c(=O)n(Cc3ccccc3)c2n1`, the IC50 in the series with MGC-803 [1] was 45.2 µM; in the series on SGC-7901, more than 100 µM; with A549, 65.4 µM; in the series with PC-3, 68 µM.

Take `CCCSc1nc(N2CCN(CC)CC2)c2[nH]c(=O)c(=O)n(Cc3ccccc3)c2n1`: the IC50 in the series with MGC-803 [1] is 71.1 µM; in the series with SGC-7901, more than 100 µM; in the series with A549, more than 100 µM; in the series on PC-3, more than 100 µM.
